Measured values: article PMC9686139, “Furanoditerpenes from Spongia (Spongia) tubulifera Display Mitochondrial-Mediated Neuroprotective Effects by Targeting Cyclophilin D” (ACS Chemical Neuroscience, 2022)
Several values for one entry are separate records, joined by “and”; a condition that tells them apart may be missing. Equal values may be shown once.

Columns and labels:
SH-SY5Y cells [1] = assay: ROS intracellular levels, carboxy-H2DCFDA; type: cell-based, human
Method: Next, the capacity of S. tubulifera metabolites to decrease ROS intracellular levels was evaluated (Figure 4). […] Regarding the oxidative stress model, H2O2 augmented the levels of oxidant molecules up to 125.1 ± 2.4% (p < 0.01) and the known antioxidant Vit E, used as a positive control, induced a reduction in ROS release of 24% with respect to cells treated only with H2O2 (p < 0.05).
Figure 4 ROS intracellular levels after treatment with compounds. Furanoditerpenes were added for 6 h in the absence and presence of 150 μM H2O2. Then, the ROS content was measured with the fluorescent dye 5-(and-6)-carboxy-2′,7′-dichlorodihydrofluorescein diacetate (carboxy-H2DCFDA). Results from (a) 1, (b) 2, (c) 3, (d) 4, and (e) 5. Vitamin E (Vit E) at 25 μM was used as a positive control. Data expressed as the percentage of untreated control cells. Mean ± SEM of three experiments performed in triplicate. Statistical differences determined by one-way ANOVA test followed by Dunnett’s post hoc test. ^##p < 0.01 compared to control cells. *p < 0.05, **p < 0.01, and ***p < 0.01 compared to H2O2 control.
(§1) For these experiments, cells were seeded in 384-well plates and treated as described above. All of the assays were carried out as previously described.[15]
The fluorescent dye 5-(and-6)-carboxy-2′,7′-dichlorodihydrofluorescein diacetate (carboxy-H2DCFDA) was used to evaluate ROS levels. After treatment with compounds and H2O2, cells were washed twice with serum-free medium. Next, cells were loaded with 20 μM carboxy-H2DCFDA dissolved in serum-free medium, and the plate was incubated for 1 h at 37 °C and 300 rpm. Then, 100 μL of PBS were added to each well for 30 min at 37 °C and 300 rpm. After this incubation, the fluorescence was read at […].

SH-SY5Y cells [2] = assay: GSH content, Thiol Tracker Violet; type: cell-based, human; conditions: for GSH content: 150 μM H2O2, 6 h, % of untreated control cells
Method: To confirm the antioxidant properties of S. tubulifera compounds, the levels of the most important nonenzymatic antioxidant of cells, glutathione (GSH), were assessed. […] Regarding diterpene 2, an increase in the nonenzymatic antioxidant was observed when cells were cotreated with H2O2 and this compound at 0.001 and 1 μM (p < 0.05) (Figure 5b). No effects were found after the addition of 3 (Figure 5c), but 4 and 5 presented interesting results (Figure 5d,e).
Figure 5 Effect of S. tubulifera metabolites in the GSH content of human neuroblastoma cells. SH-SY5Y cells were treated with compounds for 6 h with and without 150 μM H2O2. GSH levels were monitored with Thiol Tracker Violet dye. (a) Compound 1, (b) compound 2, (c) compound 3, (d) compound 4, and (e) compound 5 results. Vitamin E (Vit E) at 25 μM was used as a positive control. Mean ± SEM of three experiments performed in triplicate. Data presented as the percentage of untreated control cells and compared by one-way ANOVA and Dunnett’s tests. ^##p < 0.01 compared to control cells. *p < 0.05 compared to cells treated with H2O2 alone.
as §1
Thiol Tracker Violet was used to measure intracellular GSH levels, following the manufacturer’s instructions. Briefly, human neuroblastoma cells were rinsed twice with PBS and the fluorescence dye at 10 μM was added. The plate was incubated for 30 min at 37 °C and 300 rpm, and the fluorescence was measured at 404 nm excitation and 526 nm emission in a plate reader. All experiments were performed three independent times in triplicate.

[3] = tested on: mitochondrial permeability transition pore (mPTP); conditions: 0.25 h, 0.001 µM
Method: (§2) SH-SY5Y cells were treated for 15 min with 1–5, and 1 mM tert-butyl hydroperoxide (TBHP) was used to open the pore. Cells were loaded with calcein-AM, which accumulates in cytosol and cell compartments and with CoCl2 that quenches cytosolic fluorescence but not the mitochondrial signal.[17] Then, fluorescence was analyzed by flow cytometry (Figure 6a). […] (a) Analysis of mPTP opening. Cells were treated with compounds at 0.001 μM for 15 min, and pore opening was induced with 1 mM TBHP. Calcein-AM and CoCl2 were used to measure mPTP aperture by flow cytometry. […] Values are presented as the percentage of control cells. Data are mean ± SEM of three independent experiments. Statistical differences determined by one-way ANOVA and Dunnett’s tests. ^###p < 0.001 compared to control cells. *p < 0.05 and **p < 0.01 compared to cells treated only with TBHP.
(§3) The inhibition of mPTP by compounds was determined with the MitoProbe Transition Pore Assay Kit, as previously described.[21] For this assay, cells were seeded in 12-well plates at 5 × 10^5 cells per well and allowed to grow for 24 h. Then, SH-SY5Y cells were detached with Detachin solution (Genlatis, San Diego), washed with PBS, and resuspended in PBS buffer with 0.6 mM CaCl2. Cells were loaded with 0.01 μM calcein-AM and incubated at 37 °C for 15 min. Then, 0.4 mM CoCl2 and compounds at 0.001 μM were added and cells were incubated for 15 min at 37 °C. After this incubation, cells were centrifuged, resuspended in 100 μL of calcium-free PBS, and kept on ice. Finally, TBHP at 1 mM was added for 3 min to the cells to induce the pore opening. […] The fluorescence of 10 000 events was analyzed with IDEAS Application vs 6.0 (Amnis Corporation, Luminex Corp).

CypD = CypD expression by Western blot
Description: (b) CypD expression after treatment with S. tubulifera metabolites. (c) Effect of compounds on the CypD expression under oxidative stress conditions. […] Protein band expression was normalized by actin levels. Results are mean ± SEM of three replicates carried out in duplicate. Data expressed as the percentage of untreated control cells and H2O2 control. Values compared by one-way ANOVA and Dunnett’s tests. ^#p < 0.05 and ^##p < 0.01 compared to control cells. *p < 0.05 and **p < 0.01 compared to cells treated with H2O2 alone.
In this context, the expression of this protein was analyzed after treatment with compounds. CypD cytosolic levels were evaluated after treatment with 1–5 alone for 6 h and after the coaddition of diterpenes and H2O2 to get a complete insight into diterpene mitochondria-related effects.
SH-SY5Y cells were cultured in 12-well plates at 1 × 10^6 cells per well and allowed to settle down for 24 h.
Cells were washed twice with ice-cold PBS, and a hypotonic solution was added (20 mM tris–HCl pH 7.4, 10 mM NaCl, and 3 mM MgCl2, containing phosphatase and protease inhibitor cocktail). Cells were incubated for 15 min on ice and centrifuged at 3000 rpm and 4 °C for 15 min. The supernatant was collected as the cytosolic fraction, and protein concentration was quantified with the Direct Detect instrument (Merck Millipore, Darmstadt, Germany).[15]
Electrophoresis was resolved in 4–20% sodium dodecyl sulfate polyacrylamide gels (Biorad, Hercules, CA), containing 15 μg of cytosolic protein from each sample. The Trans-Blot semidry transfer cell (Biorad) was used to transfer proteins to poly(vinylidene difluoride) (PVDF) membranes (Merck Millipore). Snap i.d. system (Merck Millipore) was used for membrane blocking and antibody incubation. […] Immunoreactive bands were detected with Supersignal West Pico Luminiscent Substrate and Supersignal West Femto Maximum Sensitivity Substrate. Diversity GeneSnap system and software (Syngene, Cambridge, U.K.) were used for protein band detection. Experiments were performed three independent times in duplicate.

[4] = tested on: mitochondrial permeability transition pore (mPTP); assay: mPTP opening, calcein-AM/CoCl2 flow cytometry; conditions: 0.001 μM, 15 min pretreatment, TBHP 3 min
Method: as §2, §3

human CypD = human CypD (Homo sapiens, UniProt P30405); assay: Surface plasmon resonance binding to immobilized CypD; conditions: for kon: read-out: ka, CypD
human CypD, sequence (P30405 30-207): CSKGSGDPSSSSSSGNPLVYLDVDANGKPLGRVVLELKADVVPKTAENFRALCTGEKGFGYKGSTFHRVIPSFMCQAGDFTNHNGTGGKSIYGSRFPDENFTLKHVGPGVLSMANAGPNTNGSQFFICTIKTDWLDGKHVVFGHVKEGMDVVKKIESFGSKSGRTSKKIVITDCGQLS
Method: With this objective, surface plasmon resonance (SPR) experiments were performed. CypD was immobilized in the sensor surface as a ligand, and 1–5 were injected as analytes. […] For immobilization, amine groups were activated with 1-ethyl-3-(3-dimethylaminopropyl)carbodiimide hydrochloride (EDC) and N-hydroxysuccinimide (NHS) and 50 μg/mL of human CypD dissolved in 5 mM sodium acetate (pH 4.5) was added. […] All of the assays were carried out with phosphate-buffered saline (PBS)—0.05% Tween (pH 7.2) as the running buffer, with a flow rate of 20 μL/min at 24 °C.
The left panels present association curves obtained by the addition of compounds over immobilized CypD and subtraction of their respective solvent control. The right panels show fitting curves for equilibrium binding. Representative graphs of one independent replicate. […] All injections were performed using PBS, 0.05% Tween (pH 7.2) as the running buffer. Kinetic equilibrium dissociation constants (KD) and fitting curves were obtained with TraceDrawer software.
(§4) SPR measurements were performed using the MP-SPR Navi 210A VASA instrument with SPR Navi Control software (BioNavis, Tampere, Finland). All of the analyses were carried out in three-dimensional (3D) carboxymethyl dextran hydrogel-coated (CMD-3DM) sensors (BioNavis). PBS, 0.05% Tween (pH 7.2) was used as the running buffer for sensor activation, protein immobilization, and analyte injection. All buffers were degassed and filtered by 0.22 μm before use. The flow rate and temperature were set at 20 μL/min and 24 °C, respectively. A commercial Amine Coupling Kit (Xantec bioanalytics GmbH, Düsseldorf, Germany) was used for sensor activation and Cyps immobilization. The chip surface was preconditioned with 2 M NaCl and 0.01 M NaOH. Then, the surface was activated by the addition of 0.2 M 1-ethyl-3-(3-dimethylaminopropyl)carbodiimide hydrochloride (EDC) and 0.05 M N-hydroxysuccinimide (NHS). After activation, 50 μg/mL of CypA or CypD dissolved in 5 mM sodium acetate buffer (pH 4.5) were injected for immobilization on the sensor surface. […] Compound injections were performed in serial mode, and the reference channel signal was subtracted from the analyte sensorgram. Data were processed with MP-SPR Navi Data Viewer (BioNavis), and KD values were obtained using the 1:1 Langmuir model with mass transport considerations of TraceDrawer software (RidgeView Instruments Ab, Uppsala, Sweden). All of the experiments were performed three independent times.

Human CypA = Human CypA (Homo sapiens, UniProt P62937); assay: Surface plasmon resonance binding to immobilized CypA; conditions: for Kd: CypA, SPR, 1:1 Langmuir model, PBS-T pH 7.2, 24 °C; for kon: read-out: ka, CypA
Human CypA, sequence (P62937 whole entry): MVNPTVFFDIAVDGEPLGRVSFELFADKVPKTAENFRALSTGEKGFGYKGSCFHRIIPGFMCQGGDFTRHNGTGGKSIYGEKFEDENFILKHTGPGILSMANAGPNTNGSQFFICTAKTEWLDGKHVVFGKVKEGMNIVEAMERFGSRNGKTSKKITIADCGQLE
Method: The protein was immobilized on the sensor surface by amino coupling, as described above (Figure S7), and compounds at several concentrations were added. The same conditions set for CypD were used for CypA experiments, with a flow rate of 20 μL/min and PBS-T (pH 7.2) as the running buffer.
Figure 9 Binding of compounds to CypA measured by surface plasmon resonance. The left panels present association curves obtained by the addition of compounds over immobilized CypA and subtraction of their respective vehicle signal. The right panels show fitting curves for equilibrium binding. Representative graphs of one independent replicate. […] Kinetic equilibrium dissociation constants (KD) and fitting curves were obtained with TraceDrawer software.
as §4

ERK = ERK activation (phosphorylated/total) by Western blot; type: cell-based, human
Description: Considering that CypD has several upstream regulators, which are also considered mPTP modulators,[10] the study was continued by evaluating if S. tubulifera metabolites were affecting the activation of two kinases involved in the control of mPTP by CypD, ERK, and GSK3β (Figure 7). Regarding ERK, its activation has been related to the inhibition of CypD-mediated mPTP opening. Therefore, the phosphorylated state of residues implicated in ERK activation (Thr202, Tyr204, Thr185, and Tyr187) was determined, as well as its total levels. Any of the compounds were able to activate ERK under neither physiological nor oxidative conditions (Figure 7a,b). However, 3 inhibited the kinase in both situations, with levels of 78.6 ± 4.8% (p < 0.05) and 67.3 ± 9.4% (p < 0.01), respectively. […] On the other hand, GSK3β inhibition results in a reduction in mPTP opening since the kinase binds to CypD, decreasing its interaction with mPTP components.[10] In the case of GSK3β, Ser9 phosphorylation was determined, a residue implicated in kinase inhibition (Figure 7c,d).
Figure 7 Analysis of compound effects on CypD upstream regulators. SH-SY5Y cells were treated with 1–5 at 0.001 μM for 6 h, and their effects on kinase activation were evaluated. […] Kinase expression was calculated as the ratio between phosphorylated and total levels. […] Data expressed as the percentage of untreated control cells and H2O2 control. […]

Kd (human CypD) [µM] | kon (human CypD) [M⁻¹ s⁻¹] | maximum SPR signal, CypA (Human CypA) [mdeg] | Kd (Human CypA) | kon (Human CypA) [M⁻¹ s⁻¹] | Compound | reduction in ROS release with respect to cells treated only with H2O2 (SH-SY5Y cells [1]; Vit E 25 μM, 150 μM H2O2, 6 h) [%] | GSH content (SH-SY5Y cells [2]; compound 0.001 μM) [%] | GSH content (SH-SY5Y cells [2]; compound 0.1 μM) [%] | calcein fluorescence (mPTP opening) [3] [%] | CypD expression under oxidative damage (CypD; compound 0.001 μM + 150 μM H2O2, 6 h, % of H2O2 control cells) | inhibition of mPTP opening after oxidative injury [4] | selectivity between CypD and CypA (KD values) (human CypD; SPR, CypD versus CypA) | effect on ROS content (SH-SY5Y cells [1]; cotreatment with 150 μM H2O2, 6 h, all four concentrations 0.001-1 μM) | effect on GSH content (SH-SY5Y cells [2]; compound alone and with 150 μM H2O2, 6 h) | ERK activation (phosphorylated/total) (ERK; compound 0.001 μM + 150 μM H2O2, 6 h, % of H2O2 control) [%] | ERK activation (phosphorylated/total) (ERK; compound alone 0.001 μM, 6 h, % of untreated control cells) [%] | effect on CypD expression (CypD; 0.001 μM)
– | – | – | – | – | Vitamin E [Vit E, reference compound] | 24 | – | – | – | – | – | – | – | – | – | – | –
2.97 ± 0.01 | 10000 | 13.6 | 4.34 µM and 4.3 µM | 3590 | C[C@]12C=C(O)C(=O)[C@](C)(CO)[C@@H]1CC[C@@]1(C)c3cocc3CC[C@H]21 [Compound 5, spongian diterpene 17] | – | 110.9 ± 10.0 | 118.9 ± 12.0 | 90.3 ± 5.3 | about 54% | able to inhibit mPTP opening | selectivity toward the mitochondrial isoform | – | – | – | – | –
7 ± 0.04 | 3750 | – | 6.39 µM and 6.4 µM | 3190 | CC1=C(O)C(=O)C[C@]2(C)[C@H]3CCc4cocc4[C@]3(C)CC[C@@H]12 [Compound 3] | – | – | – | – | – | – | – | diminished ROS levels | No effects | 67.3 ± 9.4 | 78.6 ± 4.8 | did not affect CypD expression
